Measurements as given in patent US11840686B2, “Modulation of prekallikrein (PKK) expression” (Ionis Pharmaceuticals, Inc., priority 2013, dated 2023).
pIC50: −log10 of the molar value. Strand notation (5' to 3'): a small letter for the sugar, then the base; units joined by * are phosphorothioate-linked, units joined directly phosphodiester-linked; [ ] holds rarer units or linkages, { } end groups; capitals alone tell only the bases. e = 2'-O-(2-methoxyethyl) (MOE); [5mC] = 5-methylcytosine; d = 2'-deoxy (DNA)

Key:
human PKK mRNA [1] = test: Antisense inhibition of human PKK mRNA in HepaRG cells, 5,000 nM (Example 2); assay type: cell-based
Summary of the method: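 Percent inhibition of PKK mRNA is reported relative to untreated cells, after adjustment for total RNA by RIBOGREEN. Gapmers of 16–20 nucleosides with 2′-MOE wings were delivered at 5,000 nM by electroporation into HepaRG cells and left for roughly 24 hours before RNA isolation.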

human PKK mRNA [2] = test: Dose-dependent antisense inhibition of human PKK in HepaRG cells, 0.19-5.00 uM (Example 5); assay type: cell-based; conditions: HepaRG cells; for percent inhibition of PKK at 0.19 μM / percent inhibition of PKK at 0.56 μM / percent inhibition of PKK at 1.67 μM / percent inhibition of PKK at 5.00 μM / percent inhibition of PKK at 0.19 0μM / percent inhibition of PKK at 0.56 0μM / percent inhibition of PKK at 1.67 1μM: electroporation, approximately 16 hours; for percent inhibition of PKK mRNA, 0.19 μM: 0.19 μM antisense oligonucleotide; for percent inhibition of PKK mRNA, 0.56 μM: 0.56 μM antisense oligonucleotide; for percent inhibition of PKK mRNA, 1.67 μM: 1.67 μM antisense oligonucleotide; for percent inhibition of PKK mRNA, 5.00 μM: 5.00 μM antisense oligonucleotide
Summary of the method: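 HepaRG cells (20,000/well) were electroporated with antisense oligonucleotide at 0.19, 0.56, 1.67 and 5.00 μM and treated for about 16 hours. PKK mRNA was quantified by qRT-PCR with primer probe set RTS3454, normalised to RIBOGREEN total RNA, and IC50 was derived per oligonucleotide.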

[3] = HepaRG cells, 5,000 nM antisense oligonucleotide, 5-10-5 gapmers, Table 16
[4] = 4 point dose response, Table 35
[5] = 4 point dose response, Table 41
[6] = 4 point dose response, Table 40
[7] = 4 point dose response, Table 36
[8] = HepaRG cells, 5,000 nM antisense oligonucleotide, 5-10-5 gapmers, Table 17
[9] = 4 point dose response, Table 38
[10] = HepaRG cells, electroporation with 5,000 nM antisense oligonucleotide, approximately 24 hours, PKK mRNA by RT-PCR (RTS3454), relative to untreated control cells, Table 5 experiment

Substance | percent inhibition of PKK mRNA, 0.19 μM (human PKK mRNA [2]) | percent inhibition of PKK mRNA, 0.56 μM (human PKK mRNA [2]) | percent inhibition of PKK mRNA, 1.67 μM (human PKK mRNA [2]) | percent inhibition of PKK mRNA, 5.00 μM (human PKK mRNA [2]) | pIC50 (human PKK mRNA [2]; 0.19-5.00 μM) | percent inhibition of PKK at 0.19 μM (human PKK mRNA [2]; Table 40) | percent inhibition of PKK at 0.56 μM (human PKK mRNA [2]; Table 40) | percent inhibition of PKK at 1.67 μM (human PKK mRNA [2]; Table 40) | percent inhibition of PKK at 5.00 μM (human PKK mRNA [2]; Table 40) | pIC50 (human PKK mRNA [2]; [6]) | % inhibition (human PKK mRNA [1]; [10]) | other results
546939 (eG*e[5mC]*e[5mC]*eA*eT*d[5mC]*dT*dG*dG*dT*dT*dA*dG*d[5mC]*d[5mC]*eT*e[5mC]*e[5mC]*eG*eA; antisense) [compound 546939] | 16% | 71% | 96% | 95% | 6.40 | – | – | – | – | – | – | % inhibition (human PKK mRNA [1]; [3]): 89%; percent inhibition of PKK at 0.19 μM (human PKK mRNA [2]; Table 37): 1%; percent inhibition of PKK at 0.56 μM (human PKK mRNA [2]; Table 37): 66%; percent inhibition of PKK at 1.67 μM (human PKK mRNA [2]; Table 37): 86%; percent inhibition of PKK at 5.00 μM (human PKK mRNA [2]; Table 37): 90%; pIC50 (human PKK mRNA [2]; 4 point dose response, Table 37): 6.22
546967 (e[5mC]*eA*e[5mC]*e[5mC]*eG*d[5mC]*dG*d[5mC]*dG*dA*dA*dT*dG*d[5mC]*d[5mC]*eT*eG*e[5mC]*e[5mC]*eT; antisense) [compound 546967] | – | – | – | – | – | – | – | – | – | – | – | % inhibition (human PKK mRNA [1]; [3]): 93%; percent inhibition of PKK at 0.19 μM (human PKK mRNA [2]; Table 35): 20%; percent inhibition of PKK at 0.56 μM (human PKK mRNA [2]; Table 35): 39%; percent inhibition of PKK at 1.67 μM (human PKK mRNA [2]; Table 35): 76%; percent inhibition of PKK at 5.00 μM (human PKK mRNA [2]; Table 35): 71%; percent inhibition of PKK at 5.00 μM (human PKK mRNA [2]; Table 41): 92%; percent inhibition of PKK at 0.19 0μM (human PKK mRNA [2]; Table 41): 22%; percent inhibition of PKK at 0.56 0μM (human PKK mRNA [2]; Table 41): 45%; percent inhibition of PKK at 1.67 1μM (human PKK mRNA [2]; Table 41): 74%; pIC50 (human PKK mRNA [2]; [4]): 6.15; pIC50 (human PKK mRNA [2]; [5]): 6.15
546980 (eA*eG*e[5mC]*e[5mC]*e[5mC]*dT*d[5mC]*dA*dA*dT*dT*dG*dT*dT*dG*e[5mC]*eT*eG*eG*eT; antisense) [compound 546980] | – | – | – | – | – | 0% | 18% | 29% | 80% | 5.66 | – | % inhibition (human PKK mRNA [1]; [3]): 79%
546986 (e[5mC]*eA*eG*eG*eA*dT*dA*dG*dA*dA*d[5mC]*dT*dG*dA*dT*eG*eG*eT*e[5mC]*e[5mC]; antisense) [compound 546986] | 7% | 28% | 69% | 86% | 5.96 | – | – | – | – | – | – | % inhibition (human PKK mRNA [1]; [3]): 91%; percent inhibition of PKK at 0.19 μM (human PKK mRNA [2]; Table 36): 31%; percent inhibition of PKK at 0.56 μM (human PKK mRNA [2]; Table 36): 49%; percent inhibition of PKK at 1.67 μM (human PKK mRNA [2]; Table 36): 77%; percent inhibition of PKK at 5.00 μM (human PKK mRNA [2]; Table 36): 89%; pIC50 (human PKK mRNA [2]; [7]): 6.30
547006 (e[5mC]*eG*e[5mC]*e[5mC]*eA*dT*d[5mC]*dT*dG*d[5mC]*d[5mC]*d[5mC]*dT*dG*dT*eA*e[5mC]*eA*eG*eA; antisense) [compound 547006] | – | – | – | – | – | – | – | – | – | – | – | % inhibition (human PKK mRNA [1]; [8]): 39%; percent inhibition of PKK at 0.19 μM (human PKK mRNA [2]; Table 38): 0%; percent inhibition of PKK at 0.56 μM (human PKK mRNA [2]; Table 38): 0%; percent inhibition of PKK at 1.67 μM (human PKK mRNA [2]; Table 38): 54%; percent inhibition of PKK at 5.00 μM (human PKK mRNA [2]; Table 38): 77%; pIC50 (human PKK mRNA [2]; [9]): 5.82
547009 (eA*eA*eT*eT*eG*dG*dT*dG*dG*dT*dG*dG*dG*dA*dT*eT*eG*eG*eT*eG; antisense) [compound 547009] | – | – | – | – | – | 0% | 9% | 21% | 63% | 5.44 | – | % inhibition (human PKK mRNA [1]; [8]): 73%
547019 (eG*eA*eT*e[5mC]*eG*dG*dT*dG*dG*dT*dG*dG*dG*dA*dT*eT*eG*eG*eT*e[5mC]; antisense) [compound 547019] | – | – | – | – | – | 0% | 6% | 54% | 86% | 5.80 | – | % inhibition (human PKK mRNA [1]; [8]): 83%
547273 (antisense eT*eG*eA*eG*eT*d[5mC]*dT*d[5mC]*dT*dT*dG*dT*d[5mC]*dA*d[5mC]*eT*eT*eA*eA*eA) [compound 547273] | – | – | – | – | – | – | – | – | – | – | 93% | percent inhibition of PKK at 0.19 μM (human PKK mRNA [2]; Table 35): 44%; percent inhibition of PKK at 0.56 μM (human PKK mRNA [2]; Table 35): 69%; percent inhibition of PKK at 1.67 μM (human PKK mRNA [2]; Table 35): 87%; percent inhibition of PKK at 5.00 μM (human PKK mRNA [2]; Table 35): 87%; percent inhibition of PKK at 5.00 μM (human PKK mRNA [2]; Table 41): 83%; percent inhibition of PKK at 0.19 0μM (human PKK mRNA [2]; Table 41): 0%; percent inhibition of PKK at 0.56 0μM (human PKK mRNA [2]; Table 41): 60%; percent inhibition of PKK at 1.67 1μM (human PKK mRNA [2]; Table 41): 82%; pIC50 (human PKK mRNA [2]; [4]): 6.70; pIC50 (human PKK mRNA [2]; [5]): 6.22
547275 (antisense eT*eT*eG*eG*eA*dG*dG*dT*dG*dA*dG*dT*d[5mC]*dT*d[5mC]*eT*eT*eG*eT*e[5mC]) [compound 547275] | 56% | 16% | 80% | 86% | 5.92 | – | – | – | – | – | 87% | percent inhibition of PKK at 0.19 μM (human PKK mRNA [2]; Table 39): 34%; percent inhibition of PKK at 0.56 μM (human PKK mRNA [2]; Table 39): 66%; percent inhibition of PKK at 1.67 μM (human PKK mRNA [2]; Table 39): 82%; percent inhibition of PKK at 5.00 μM (human PKK mRNA [2]; Table 39): 95%; pIC50 (human PKK mRNA [2]; 4 point dose response, Table 39): 6.52
547276 (antisense e[5mC]*eA*eA*eT*eT*dG*d[5mC]*dT*dT*d[5mC]*dT*dT*dG*dG*dA*eG*eG*eT*eG*eA) [compound 547276] | 6% | 3% | 53% | 68% | 5.66 | – | – | – | – | – | 93% | percent inhibition of PKK at 0.19 μM (human PKK mRNA [2]; Table 35): 35%; percent inhibition of PKK at 0.56 μM (human PKK mRNA [2]; Table 35): 44%; percent inhibition of PKK at 1.67 μM (human PKK mRNA [2]; Table 35): 71%; percent inhibition of PKK at 5.00 μM (human PKK mRNA [2]; Table 35): 77%; pIC50 (human PKK mRNA [2]; [4]): 6.22
547277 (antisense e[5mC]*eA*e[5mC]*eA*eA*dT*dT*dG*d[5mC]*dT*dT*d[5mC]*dT*dT*dG*eG*eA*eG*eG*eT) [compound 547277] | – | – | – | – | – | 2% | 32% | 34% | 62% | 5.55 | 75% | –
547288 (antisense e[5mC]*eA*eT*eA*eG*dA*dG*dT*dT*dG*dA*dG*dT*d[5mC]*dA*eG*eA*e[5mC]*eA*eT) [compound 547288] | – | – | – | – | – | 0% | 0% | 0% | 38% | < 5.30 | 80% | –
547293 (antisense e[5mC]*eA*eT*e[5mC]*eT*dG*dG*d[5mC]*dA*dG*dT*dA*dT*dT*dG*eG*eG*e[5mC]*eA*eT) [compound 547293] | 0% | 45% | 65% | 70% | 5.89 | – | – | – | – | – | 92% | percent inhibition of PKK at 0.19 μM (human PKK mRNA [2]; Table 36): 53%; percent inhibition of PKK at 0.56 μM (human PKK mRNA [2]; Table 36): 57%; percent inhibition of PKK at 1.67 μM (human PKK mRNA [2]; Table 36): 80%; percent inhibition of PKK at 5.00 μM (human PKK mRNA [2]; Table 36): 86%; pIC50 (human PKK mRNA [2]; [7]): 6.70
547294 (antisense e[5mC]*eT*e[5mC]*eA*eT*d[5mC]*dT*dG*dG*d[5mC]*dA*dG*dT*dA*dT*eT*eG*eG*eG*e[5mC]) [compound 547294] | 4% | 70% | 84% | 91% | 6.22 | – | – | – | – | – | 85% | percent inhibition of PKK at 0.19 μM (human PKK mRNA [2]; Table 38): 28%; percent inhibition of PKK at 0.56 μM (human PKK mRNA [2]; Table 38): 59%; percent inhibition of PKK at 1.67 μM (human PKK mRNA [2]; Table 38): 87%; percent inhibition of PKK at 5.00 μM (human PKK mRNA [2]; Table 38): 86%; pIC50 (human PKK mRNA [2]; [9]): 6.40
547298 (antisense eT*eT*eG*eG*eG*dT*dG*dG*dA*dA*dT*dG*dT*dG*d[5mC]*eA*e[5mC]*e[5mC]*eT*e[5mC]) [compound 547298] | 0% | 12% | 67% | 87% | 5.77 | – | – | – | – | – | 90% | percent inhibition of PKK at 0.19 μM (human PKK mRNA [2]; Table 36): 32%; percent inhibition of PKK at 0.56 μM (human PKK mRNA [2]; Table 36): 61%; percent inhibition of PKK at 1.67 μM (human PKK mRNA [2]; Table 36): 74%; percent inhibition of PKK at 5.00 μM (human PKK mRNA [2]; Table 36): 90%; pIC50 (human PKK mRNA [2]; [7]): 6.40
